Measured values reported in ChEMBL document CHEMBL4118122, “Identification and biological evaluation of thiazole-based inverse agonists of RORγt” (Bioorg Med Chem Lett, 2018).

How the values were obtained:
[1] = molecular target: Ribosomal protein S6 kinase alpha-2 (Homo sapiens) (UniProt Q15349); assay: Inhibition of recombinant full length GST-tagged human RSK3 expressed in insect cells at 10 uM in presence of ATP relative to control
[2] = test system: Casein kinase II subunit alpha' (CSNK2A2); assay: Inhibition of CK2alpha2 (unknown origin) at 10 uM in presence of ATP relative to control; conditions: Homo sapiens
[3] = molecular target: Sodium-dependent dopamine transporter (Homo sapiens) (UniProt Q01959); assay: Displacement of [3H][…] from recombinant human dopamine transporter at 1 uM after 120 mins by scintillation counting analysis relative to control
Sodium-dependent dopamine transporter (Homo sapiens), sequence (Q01959 whole entry): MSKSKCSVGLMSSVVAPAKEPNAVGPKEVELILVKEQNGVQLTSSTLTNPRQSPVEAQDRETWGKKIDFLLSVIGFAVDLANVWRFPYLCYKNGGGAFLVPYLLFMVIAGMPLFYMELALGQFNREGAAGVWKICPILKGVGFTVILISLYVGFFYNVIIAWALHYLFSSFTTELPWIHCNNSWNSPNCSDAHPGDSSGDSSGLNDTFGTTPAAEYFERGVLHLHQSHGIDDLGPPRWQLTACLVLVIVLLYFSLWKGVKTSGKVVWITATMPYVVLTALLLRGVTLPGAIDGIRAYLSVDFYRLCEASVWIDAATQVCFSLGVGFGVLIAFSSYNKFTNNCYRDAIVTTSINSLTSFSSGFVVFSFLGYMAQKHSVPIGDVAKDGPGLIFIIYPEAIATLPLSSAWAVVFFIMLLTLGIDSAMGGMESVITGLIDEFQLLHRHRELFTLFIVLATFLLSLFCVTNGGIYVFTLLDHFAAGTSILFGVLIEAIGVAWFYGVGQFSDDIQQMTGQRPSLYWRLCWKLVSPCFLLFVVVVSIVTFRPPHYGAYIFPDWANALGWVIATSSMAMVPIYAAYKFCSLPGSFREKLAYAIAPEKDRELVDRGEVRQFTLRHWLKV

Neuromedin-K receptor = Neuromedin-K receptor (Homo sapiens, UniProt P29371); assay: Displacement of [3H]SR 142801 from human recombinant NK3 receptor after 120 mins by scintillation counting analysis
Neuromedin-K receptor, sequence (P29371 whole entry): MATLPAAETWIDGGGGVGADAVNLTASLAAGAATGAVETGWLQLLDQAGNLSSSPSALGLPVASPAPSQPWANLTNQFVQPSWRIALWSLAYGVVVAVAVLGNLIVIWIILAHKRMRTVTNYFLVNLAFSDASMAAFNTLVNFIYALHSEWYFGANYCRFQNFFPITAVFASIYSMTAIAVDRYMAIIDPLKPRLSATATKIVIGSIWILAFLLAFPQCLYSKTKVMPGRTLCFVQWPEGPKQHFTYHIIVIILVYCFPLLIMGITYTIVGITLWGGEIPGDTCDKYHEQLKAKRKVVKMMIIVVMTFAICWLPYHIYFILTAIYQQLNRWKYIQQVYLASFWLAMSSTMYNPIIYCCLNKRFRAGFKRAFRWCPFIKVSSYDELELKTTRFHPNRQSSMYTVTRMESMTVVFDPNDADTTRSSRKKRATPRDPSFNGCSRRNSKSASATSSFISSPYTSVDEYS

[4] = molecular target: Type-1 angiotensin II receptor (Homo sapiens, UniProt P30556); assay: Displacement of [125I][Sar1,Ile8]-AT-II from human recombinant AT1 receptor after 120 mins by scintillation counting analysis
Type-1 angiotensin II receptor, sequence (P30556 whole entry): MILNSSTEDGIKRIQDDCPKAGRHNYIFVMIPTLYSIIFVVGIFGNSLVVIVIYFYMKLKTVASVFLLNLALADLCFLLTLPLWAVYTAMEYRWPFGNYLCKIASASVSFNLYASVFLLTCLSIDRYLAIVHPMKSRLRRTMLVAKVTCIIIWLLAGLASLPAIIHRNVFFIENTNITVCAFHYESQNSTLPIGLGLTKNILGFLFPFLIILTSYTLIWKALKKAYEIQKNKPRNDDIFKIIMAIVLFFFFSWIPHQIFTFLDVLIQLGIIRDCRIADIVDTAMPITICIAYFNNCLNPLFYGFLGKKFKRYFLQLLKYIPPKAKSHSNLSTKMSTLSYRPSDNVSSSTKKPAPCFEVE

Adenosine receptor A2a = Adenosine receptor A2a (Homo sapiens, UniProt P29274); assay: Displacement of [3H]-CGS 21680 from human recombinant adenosine A2A receptor at 1 uM after 120 mins by scintillation counting analysis relative to control
[5] = molecular target: Ephrin type-A receptor 2 (Homo sapiens) (UniProt P29317); assay: Inhibition of recombinant GST-tagged human EPHA2 (560 to 976 residues) cytoplasmic domain expressed in baculovirus expression system at 10 uM in presence of ATP relative to control
Ephrin type-A receptor 2 (Homo sapiens), sequence (P29317 whole entry, the tested form may be a part): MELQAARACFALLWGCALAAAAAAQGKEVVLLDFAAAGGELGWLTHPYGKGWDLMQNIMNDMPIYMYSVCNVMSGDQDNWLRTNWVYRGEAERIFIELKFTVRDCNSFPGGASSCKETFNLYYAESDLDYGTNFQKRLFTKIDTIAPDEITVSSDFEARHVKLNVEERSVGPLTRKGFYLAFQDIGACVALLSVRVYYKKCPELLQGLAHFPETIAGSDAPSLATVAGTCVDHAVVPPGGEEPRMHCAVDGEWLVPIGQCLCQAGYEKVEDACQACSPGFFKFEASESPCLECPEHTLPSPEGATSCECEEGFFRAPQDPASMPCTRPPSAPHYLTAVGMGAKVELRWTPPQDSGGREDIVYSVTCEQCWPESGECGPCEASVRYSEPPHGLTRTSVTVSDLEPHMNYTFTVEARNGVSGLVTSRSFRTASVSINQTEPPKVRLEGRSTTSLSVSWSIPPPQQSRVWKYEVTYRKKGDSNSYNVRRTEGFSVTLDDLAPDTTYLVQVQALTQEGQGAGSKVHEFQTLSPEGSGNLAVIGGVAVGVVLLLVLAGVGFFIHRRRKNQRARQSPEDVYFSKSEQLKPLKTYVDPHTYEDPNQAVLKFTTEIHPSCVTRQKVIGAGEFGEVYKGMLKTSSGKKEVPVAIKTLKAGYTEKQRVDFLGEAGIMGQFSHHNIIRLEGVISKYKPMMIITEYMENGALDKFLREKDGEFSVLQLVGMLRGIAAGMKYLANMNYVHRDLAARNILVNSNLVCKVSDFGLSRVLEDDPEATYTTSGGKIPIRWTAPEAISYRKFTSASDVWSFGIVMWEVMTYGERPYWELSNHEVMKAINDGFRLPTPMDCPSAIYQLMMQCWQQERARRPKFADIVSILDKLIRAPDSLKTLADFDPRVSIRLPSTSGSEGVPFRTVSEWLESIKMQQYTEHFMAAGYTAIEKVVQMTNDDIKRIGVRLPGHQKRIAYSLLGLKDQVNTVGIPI

[6] = molecular target: Neuromedin-K receptor (Homo sapiens) (UniProt P29371); assay: Displacement of [3H]SR 142801 from human recombinant NK3 receptor at 10 uM after 120 mins by scintillation counting analysis relative to control
Neuromedin-K receptor (Homo sapiens), sequence (P29371 whole entry, canonical isoform): as the sequence (P29371 whole entry) above

[7] = molecular target: Casein kinase I isoform epsilon (Homo sapiens) (UniProt P49674); assay: Inhibition of CK1epsilon (unknown origin) at 10 uM in presence of ATP relative to control
[8] = molecular target: Vasoactive intestinal polypeptide receptor 1 (Homo sapiens) (UniProt P32241); assay: Displacement of [125I]VIP from human recombinant VPAC1 receptor at 1 uM after 60 mins by scintillation counting analysis relative to control
[9] = molecular target: Neuropeptide Y receptor type 2 (Homo sapiens) (UniProt P49146); assay: Displacement of [125I]peptide YY from human Y2 receptor at 1 uM after 120 mins by scintillation counting analysis relative to control
[10] = molecular target: Kappa-type opioid receptor (Homo sapiens, UniProt P41145); assay: Displacement of [3H]U69593 from human kappa receptor at 1 uM after 60 mins by scintillation counting analysis relative to control
[11] = molecular target: Serine/threonine-protein kinase PLK3 (Homo sapiens) (UniProt Q9H4B4); assay: Inhibition of GST-tagged human PLK3 catalytic domain expressed in baculovirus expression system at 10 uM in presence of ATP relative to control
[12] = molecular target: T1, Sodium-dependent serotonin transporter (Homo sapiens, UniProt P31645); assay: Displacement of [3H]-imipramine from recombinant human 5-HT transporter at 10 uM after 60 mins by scintillation counting relative to control
[13] = molecular target: Small conductance calcium-activated potassium channel (Rattus norvegicus) (UniProt P70604+P70606+P70605); assay: Displacement of [125I]apamin from rat brain SkCa channel at 1 uM after 60 mins by scintillation counting analysis relative to control
Adenosine receptor A1 = Adenosine receptor A1 (Homo sapiens, UniProt P30542); assay: Displacement of [3H]-DPCPX from human recombinant adenosine A1 receptor after 60 mins by scintillation counting analysis
Adenosine receptor A1, sequence (P30542 whole entry): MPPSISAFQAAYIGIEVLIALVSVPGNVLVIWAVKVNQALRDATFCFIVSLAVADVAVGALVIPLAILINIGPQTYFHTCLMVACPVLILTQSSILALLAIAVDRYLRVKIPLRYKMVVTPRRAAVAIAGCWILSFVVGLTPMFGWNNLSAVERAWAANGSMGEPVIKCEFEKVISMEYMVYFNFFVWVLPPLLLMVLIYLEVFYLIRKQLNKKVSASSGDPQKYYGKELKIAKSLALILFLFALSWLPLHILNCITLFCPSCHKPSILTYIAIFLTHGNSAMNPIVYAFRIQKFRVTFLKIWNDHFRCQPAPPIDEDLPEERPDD

[14] = molecular target: Cyclin-dependent kinase 5/CDK5 activator 1 (Homo sapiens) (UniProt Q00535+Q15078); assay: Inhibition of recombinant full length His-tagged human CDK5/p35 expressed in baculovirus expression system at 10 uM in presence of ATP relative to control
[15] = molecular target: T1, Sodium-dependent serotonin transporter; assay: Displacement of [3H]-imipramine from recombinant human 5-HT transporter after 60 mins by scintillation counting relative to control
[16] = molecular target: 5-hydroxytryptamine receptor 5A (Homo sapiens, UniProt P47898); assay: Displacement of [3H]LSD from human recombinant 5-HT5a receptor at 1 uM after 120 mins by scintillation counting analysis relative to control
[17] = Volume of distribution at steady state in Sprague-Dawley rat at 1 mg/kg, iv; format: ADME, organism-based; conditions: in vivo, read-out: Vdss
[18] = molecular target: Somatostatin receptor (Mus musculus) (UniProt P30935+O08858+P30875+P30873+P49660); assay: Displacement of [125I]Tyr11-somatostatin-14 from mouse SST receptor at 10 uM after 60 mins by scintillation counting analysis relative to control; format: protein assay
[19] = molecular target: Mitogen-activated protein kinase 13 (Homo sapiens) (UniProt O15264); assay: Inhibition of recombinant full length His-tagged human p38delta expressed in baculovirus expression system at 10 uM in presence of ATP relative to control
Mitogen-activated protein kinase 13 (Homo sapiens), sequence (O15264 whole entry): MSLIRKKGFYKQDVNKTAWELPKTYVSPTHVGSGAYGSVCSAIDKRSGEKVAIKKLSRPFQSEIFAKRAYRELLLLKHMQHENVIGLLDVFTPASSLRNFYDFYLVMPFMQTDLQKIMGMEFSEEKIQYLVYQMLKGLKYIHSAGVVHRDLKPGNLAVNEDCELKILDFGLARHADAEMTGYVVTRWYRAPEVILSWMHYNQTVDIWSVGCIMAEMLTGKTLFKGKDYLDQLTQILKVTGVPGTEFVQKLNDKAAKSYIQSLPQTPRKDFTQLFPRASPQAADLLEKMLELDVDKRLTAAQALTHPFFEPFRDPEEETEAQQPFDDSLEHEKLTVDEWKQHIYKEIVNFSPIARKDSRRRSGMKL

[20] = molecular target: Endothelin-1 receptor (Homo sapiens) (UniProt P25101); assay: Displacement of [125I]-endothelin-1 from human recombinant ETA receptor at 10 uM after 120 mins by scintillation counting analysis relative to control
[21] = molecular target: Sodium-dependent noradrenaline transporter (Homo sapiens, UniProt P23975); assay: Displacement of [3H]nisoxetine from recombinant human norepinephrine transporter at 10 uM after 120 mins by scintillation counting analysis relative to control
Cytochrome P450 1A2 = molecular target: T2, Cytochrome P450 1A2 (Homo sapiens, UniProt P05177); assay: Inhibition of CYP1A2 (unknown origin); format: ADME
T2 sequence (P05177 whole entry): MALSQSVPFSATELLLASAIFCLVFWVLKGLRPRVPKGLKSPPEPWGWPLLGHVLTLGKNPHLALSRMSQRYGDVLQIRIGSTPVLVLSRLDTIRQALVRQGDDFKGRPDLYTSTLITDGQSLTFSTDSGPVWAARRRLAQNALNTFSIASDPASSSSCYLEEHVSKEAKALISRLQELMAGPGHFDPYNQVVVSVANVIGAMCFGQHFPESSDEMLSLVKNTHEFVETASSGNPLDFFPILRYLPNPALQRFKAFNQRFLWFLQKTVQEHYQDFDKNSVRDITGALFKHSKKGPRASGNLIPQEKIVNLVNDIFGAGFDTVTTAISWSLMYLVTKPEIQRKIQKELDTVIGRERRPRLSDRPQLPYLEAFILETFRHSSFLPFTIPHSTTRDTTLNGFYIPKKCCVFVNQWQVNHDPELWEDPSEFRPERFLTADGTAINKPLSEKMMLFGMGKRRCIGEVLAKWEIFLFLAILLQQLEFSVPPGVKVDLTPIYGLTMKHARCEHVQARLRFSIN

[22] = molecular target: Insulin receptor (Homo sapiens) (UniProt P06213); assay: Inhibition of recombinant His-tagged human InsR (1011 to 1382 residues) expressed in baculovirus expression system at 10 uM in presence of ATP relative to control
Insulin receptor (Homo sapiens), sequence (P06213 28-758 limits assumed): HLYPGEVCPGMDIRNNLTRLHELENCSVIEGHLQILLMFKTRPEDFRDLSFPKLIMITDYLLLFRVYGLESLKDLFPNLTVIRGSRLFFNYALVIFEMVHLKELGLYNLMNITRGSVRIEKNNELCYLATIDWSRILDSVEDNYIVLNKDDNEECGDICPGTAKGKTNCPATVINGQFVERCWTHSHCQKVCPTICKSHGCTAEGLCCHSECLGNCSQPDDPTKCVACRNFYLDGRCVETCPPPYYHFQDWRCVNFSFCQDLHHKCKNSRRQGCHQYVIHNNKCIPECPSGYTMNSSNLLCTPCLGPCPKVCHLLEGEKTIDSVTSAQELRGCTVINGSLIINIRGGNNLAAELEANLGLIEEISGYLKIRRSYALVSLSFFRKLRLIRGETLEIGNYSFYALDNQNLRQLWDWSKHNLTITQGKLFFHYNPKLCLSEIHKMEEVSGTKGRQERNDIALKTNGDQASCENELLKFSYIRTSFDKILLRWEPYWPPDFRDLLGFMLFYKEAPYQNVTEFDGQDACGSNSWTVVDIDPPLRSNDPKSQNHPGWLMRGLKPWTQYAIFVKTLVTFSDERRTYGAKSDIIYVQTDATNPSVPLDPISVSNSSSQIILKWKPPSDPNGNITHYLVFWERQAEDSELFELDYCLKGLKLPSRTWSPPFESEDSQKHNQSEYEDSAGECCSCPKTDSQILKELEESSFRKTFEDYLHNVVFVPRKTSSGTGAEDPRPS
Insulin receptor (Homo sapiens), sequence (P06213 763-1382 limits assumed): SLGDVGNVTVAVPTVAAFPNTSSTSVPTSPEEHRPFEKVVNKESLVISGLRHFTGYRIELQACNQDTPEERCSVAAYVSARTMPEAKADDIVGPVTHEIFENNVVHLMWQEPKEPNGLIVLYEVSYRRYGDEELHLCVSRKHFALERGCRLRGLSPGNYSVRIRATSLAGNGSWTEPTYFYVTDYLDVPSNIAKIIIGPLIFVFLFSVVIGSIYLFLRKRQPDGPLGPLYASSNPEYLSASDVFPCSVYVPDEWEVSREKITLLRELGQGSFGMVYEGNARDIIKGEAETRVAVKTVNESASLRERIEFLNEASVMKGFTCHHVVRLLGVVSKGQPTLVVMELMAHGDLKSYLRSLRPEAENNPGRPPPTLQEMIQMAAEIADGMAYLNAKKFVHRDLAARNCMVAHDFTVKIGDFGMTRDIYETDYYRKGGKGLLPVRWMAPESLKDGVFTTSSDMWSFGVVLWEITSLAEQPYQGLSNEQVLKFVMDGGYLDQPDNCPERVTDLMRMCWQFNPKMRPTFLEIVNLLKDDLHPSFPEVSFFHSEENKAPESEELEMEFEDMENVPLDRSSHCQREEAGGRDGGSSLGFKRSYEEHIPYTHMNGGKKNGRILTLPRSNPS

Cytochrome P450 3A4 = Cytochrome P450 3A4 (Homo sapiens, UniProt P08684); assay: Inhibition of CYP3A4 (unknown origin); format: ADME
Cytochrome P450 3A4, sequence (P08684 whole entry): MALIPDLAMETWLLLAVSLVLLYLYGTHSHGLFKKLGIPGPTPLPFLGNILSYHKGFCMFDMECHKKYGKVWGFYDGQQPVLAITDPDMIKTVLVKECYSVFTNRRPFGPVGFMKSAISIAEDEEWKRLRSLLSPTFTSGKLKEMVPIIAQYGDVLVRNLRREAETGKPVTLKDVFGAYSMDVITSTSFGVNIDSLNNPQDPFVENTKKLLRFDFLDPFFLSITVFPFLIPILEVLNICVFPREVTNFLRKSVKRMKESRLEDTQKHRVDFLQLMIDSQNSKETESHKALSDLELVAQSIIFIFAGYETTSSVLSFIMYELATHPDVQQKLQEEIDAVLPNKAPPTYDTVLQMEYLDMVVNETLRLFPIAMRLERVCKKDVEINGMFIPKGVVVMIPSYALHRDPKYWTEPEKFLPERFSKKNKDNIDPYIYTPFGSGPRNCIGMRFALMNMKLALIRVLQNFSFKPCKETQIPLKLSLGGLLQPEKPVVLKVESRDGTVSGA

## CC(C)(C)NS(=O)(=O)c1ccc(-c2sc(C(=O)N[C@H]3C[C@H](C(=O)O)C3)nc2CC2CCCCC2)c2ccccc12
[1]
  inhibition: -4%
[2]
  inhibition: 2%
[3]
  inhibition: 18%
Neuromedin-K receptor
  IC50: 8.2 nM
[4]
  IC50: 0.47 nM
Adenosine receptor A2a
  inhibition: 21%
[5]
  inhibition: -7%
[6]
  inhibition: 32%
[7]
  inhibition: 4%
[8]
  inhibition: < 10%
[9]
  inhibition: < 10%
[10]
  inhibition: < 10%
[11]
  inhibition: -5%
[12]
  inhibition: < 10%
[13]
  inhibition: < 10%
Adenosine receptor A1
  IC50: 0.61 nM
[14]
  inhibition: -4%
[15]
  IC50: 1.7 nM
[16]
  inhibition: < 10%
[17]
  Vd: 1.1 L/kg
[18]
  inhibition: < 10%
[19]
  inhibition: -4%
[20]
  inhibition: < 10%
[21]
  inhibition: 27%
Cytochrome P450 1A2
  INH: > 10 µM
[22]
  inhibition: -4%
Cytochrome P450 3A4
  INH: > 10 µM
